According to patent publication US9023789B2, “Amylin analogs and pharmaceutical compositions thereof” (Novo Nordisk A/S, priority 2012, dated 2015):
Numbered stars: 1 amine (or outer) side, 2 acyl side, 3 side chain; on linkers, the order of the positions; unused ones are H or OH. Bridge positions count the residues as written; N and C are the ends. Side chains are listed from the residue outwards. Peptide text beside a SMILES is read from it. * marks the point of attachment. C20 diacid = O=C(O)CCCCCCCCCCCCCCCCCCC(=O)*; γGlu = O=C(O)[C@H](CCC(=O)[*:2])N[*:1]

Columns and labels:
[1] = ASSAY (III) ThT fibrillation assay for physical stability; type: physicochemical
How it was run: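 Physical stability scored by ThT fluorescence (444 nm excitation, 485 nm emission) tracked every 20 min during 37 °C incubation with 960 rpm shaking, ThT at 1 μM final. Values are replicate means with SD at chosen times; HPLC against pramlintide standard gives initial and post-assay soluble concentrations.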

[2] = biological target: T1, rat amylin receptor (rat calcitonin receptor + rat RAMP 3) (Rattus norvegicus, UniProt P32214+Q9JJ73); test: ASSAY (VI) binding to the rat amylin receptor
T1 construct: expressed in transfected cells; host or cells: BHK tk'ts 13 (transient, FuGENE 6), membranes
T1 sequence (P32214 25-479 isoform P32214-2 limits assumed): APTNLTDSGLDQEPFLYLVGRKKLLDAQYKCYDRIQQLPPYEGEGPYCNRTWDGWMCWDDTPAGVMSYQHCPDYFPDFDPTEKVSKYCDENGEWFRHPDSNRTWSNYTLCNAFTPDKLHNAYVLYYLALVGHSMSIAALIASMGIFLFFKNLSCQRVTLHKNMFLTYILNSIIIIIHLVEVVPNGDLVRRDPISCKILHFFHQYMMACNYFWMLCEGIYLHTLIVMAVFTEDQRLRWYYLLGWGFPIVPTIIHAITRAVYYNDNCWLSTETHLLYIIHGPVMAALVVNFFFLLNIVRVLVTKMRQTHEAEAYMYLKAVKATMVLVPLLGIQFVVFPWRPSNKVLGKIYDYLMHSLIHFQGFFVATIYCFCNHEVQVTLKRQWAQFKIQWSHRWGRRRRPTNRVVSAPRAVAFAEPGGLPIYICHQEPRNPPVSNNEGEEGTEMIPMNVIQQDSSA
T1 sequence (Q9JJ73 23-147 partner): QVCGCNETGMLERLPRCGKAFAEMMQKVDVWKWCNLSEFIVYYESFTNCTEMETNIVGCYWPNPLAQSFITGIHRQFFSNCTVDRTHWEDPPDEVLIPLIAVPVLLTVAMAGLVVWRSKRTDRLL
How it was run: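 Membranes for this rat amylin receptor binding assay came from BHK tk′ts 13 cells. The cells were transiently transfected with rat calcitonin receptor using the FuGENE® 6 reagent from Roche, as the manufacturer recommends. The cells were collected approximately 48 hours after transfection, and membranes were then prepared.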

[3] = Table 7, rat binding selectivity, rCTR IC50 / rAmylin-R IC50

SMILES	ThT pH 4.0 lag time (h) [1]	IC50 ([2]; Table 7, binding to rat amylin receptor, read-out: rAmylin-R bind IC50)	Ratio rCT/rAmylin binding [2, 3]	Ratio rCT/rAmylin binding ([2]; Table 7a (preferred compounds), rat binding selectivity, rCTR IC50 / rAmylin-R IC50)	Ratio rCT/rAmylin binding ([2]; ratio of rCTR bind IC50 to rAmylin-R bind IC50)
CC[C@H](C)[C@H](NC(=O)[C@H](C)NC(=O)CNC(=O)[C@H](Cc1ccccc1)NC(=O)[C@H](CC(N)=O)NC(=O)[C@@H]1CCCN1C(=O)[C@H](CO)NC(=O)[C@H](CO)NC(=O)[C@H](Cc1c[nH]cn1)NC(=O)[C@H](CCCNC(=N)N)NC(=O)[C@H](CC(C)C)NC(=O)[C@H](Cc1ccccc1)NC(=O)[C@H](CC(=O)O)NC(=O)[C@H](C)NC(=O)[C@H](CC(C)C)NC(=O)[C@H](CCCNC(=N)N)NC(=O)[C@H](CCC(N)=O)NC(=O)[C@@H](NC(=O)[C@H](C)NC(=O)[C@@H]1CSSC[C@H](NC(=O)[C@@H](N)CCCCNC(=O)CC[C@H](NC(=O)CC[C@H](NC(=O)CCCCCCCCCCCCCCCCCCC(=O)O)C(=O)O)C(=O)O)C(=O)N[C@@H](CC(N)=O)C(=O)N[C@@H]([C@@H](C)O)C(=O)N[C@@H](C)C(=O)N[C@@H]([C@@H](C)O)C(=O)N1)[C@@H](C)O)C(=O)N1CCC[C@H]1C(=O)N[C@@H](CO)C(=O)N[C@@H](CO)C(=O)N[C@H](C(=O)N[C@@H](CC(N)=O)C(=O)N[C@H](C(=O)NCC(=O)N[C@@H](CO)C(=O)N[C@@H](CC(=O)O)C(=O)N[C@H](C(=O)N[C@@H](Cc1ccc(O)cc1)C(N)=O)[C@@H](C)O)C(C)C)[C@@H](C)O [Example 2] (H-K([γGlu-γGlu-C20 diacid])CNTATCATQRLADFLRHSSPNFGAIPSSTNVGSDTY-NH2; disulfide 2-7; N-terminus assumed)	10 h	0.295 nM	365.7	365.7	365.7
CC[C@H](C)[C@H](NC(=O)[C@H](C)NC(=O)CNC(=O)[C@H](Cc1ccccc1)NC(=O)[C@H](CC(N)=O)NC(=O)[C@@H]1CCCN1C(=O)[C@H](CO)NC(=O)[C@H](CO)NC(=O)[C@H](Cc1c[nH]cn1)NC(=O)[C@H](CCCNC(=N)N)NC(=O)[C@H](CC(C)C)NC(=O)[C@H](Cc1ccccc1)NC(=O)[C@H](CCC(=O)O)NC(=O)[C@H](C)NC(=O)[C@H](CC(C)C)NC(=O)[C@H](CCCNC(=N)N)NC(=O)[C@H](CCC(N)=O)NC(=O)[C@@H](NC(=O)[C@H](C)NC(=O)[C@@H]1CSSC[C@H](NC(=O)[C@@H](N)CCCCNC(=O)CC[C@H](NC(=O)CCCCCCCCCCCCCCCCCCC(=O)O)C(=O)O)C(=O)N[C@@H](CC(N)=O)C(=O)N[C@@H]([C@@H](C)O)C(=O)N[C@@H](C)C(=O)N[C@@H]([C@@H](C)O)C(=O)N1)[C@@H](C)O)C(=O)N1CCC[C@H]1C(=O)N[C@@H](CO)C(=O)N[C@@H](CO)C(=O)N[C@H](C(=O)N[C@@H](CC(N)=O)C(=O)N[C@H](C(=O)NCC(=O)N[C@@H](CO)C(=O)N[C@@H](CC(N)=O)C(=O)N[C@H](C(=O)N1CCC[C@H]1C(N)=O)[C@@H](C)O)C(C)C)[C@@H](C)O [Example 12] (H-K([γGlu-C20 diacid])CNTATCATQRLAEFLRHSSPNFGAIPSSTNVGSNTP-NH2; disulfide 2-7 (inferred); N-terminus assumed)	45 h		5.0		
